Article PMC11579512, “Deoxybouvardin-glucoside induces apoptosis in non-small cell lung cancer cells by targeting EGFR/MET and AKT signaling pathway” (EXCLI Journal, 2024)

Assays:
[1] = test system: cyclin D1; assay: Immunoblot cyclin D1 in HCC827 and HCC827GR cells; format: cell-based, human; details: for cyclinD1 protein ratio: relative to DBG 0 nM = 1.00
Procedure: (§1) HaCaT cells were grown in DMEM, whereas HCC827 and HCC827GR cells were grown in RPMI 1640. All culture media were supplemented with FBS (10 %) and P/S (1 %), and the cells were grown at 37 °C in 5 % CO2.
(§2) Cells were lysed in RIPA buffer, and protein concentration was determined using a Bio-Rad DC Protein Assay kit (Bio-Rad, Hercules, CA, USA). Protein samples from the cell lysates were resolved by sodium dodecyl sulfate-polyacrylamide gel electrophoresis and then transferred onto polyvinylidene fluoride membranes. The membranes were blocked with 3 % or 5 % skim milk and then incubated at 4 °C overnight with the indicated primary antibodies, followed by the corresponding horseradish peroxidase-conjugated secondary antibodies at RT for 2 h. Protein bands were visualized using western blotting luminol reagent solution and ImageQuant LAS 500 (GE Healthcare, Uppsala, Sweden). The density of the bands was quantified using ImageJ software (NIH, Bethesda, MD, USA).

[2] = test system: HCC827 cells; assay: Intracellular ROS (Muse Oxidative Stress Kit), HCC827; format: cell-based, human; details: 48 h, control 7.32 %
Procedure: as §1
The levels of intracellular ROS were measured using a Muse™ Oxidative Stress Kit (MCH100111, Merck Millipore) in accordance with the manufacturer's instructions. The cells were incubated with a Muse™ Oxidative Stress Reagent working solution in the dark at 37 °C for 30 min. Intracellular ROS generation was measured using a Muse™ Cell Analyzer.

[3] = test system: CDK2; assay: Immunoblot CDK2 in HCC827 and HCC827GR cells; format: cell-based, human; details: for CDK2 protein ratio: relative to DBG 0 nM = 1.00
Procedure: as §1, §2

[4] = test system: HCC827GR cells; assay: Multi-caspase assay, HCC827GR; format: cell-based, human; design: Caspase+ cells / Total Caspase+ cells / dead cells (multi-caspase assay) / Live cells (multi-caspase assay): unit not given here; details: for cells with activated caspases: 48 h, background 6.43 %; for Caspase+ cells / Caspase+/dead cells / Live cells (multi-caspase assay) / Total Caspase+ cells / dead cells (multi-caspase assay): HCC827GR
Procedure: as §1

[5] = target: T1, AKT2 (Homo sapiens, UniProt P31751); assay: In vitro ADP-Glo kinase assay, AKT2; format: biochemical
T1 construct: purchased Promega
Procedure: Subsequently, each well was added with ADP-Glo reagent and incubated for another 40 min. After completion of the kinase reaction, each well was added with kinase activity detection reagent and then incubated for 30 min. Liquid was dispensed with I.DOT (Dispendix, Stuttgart, Germany). Luminescence was measured on a Centro LB 960 microplate luminometer (Berthold Technologies).

T1 sequence (P31751 whole entry): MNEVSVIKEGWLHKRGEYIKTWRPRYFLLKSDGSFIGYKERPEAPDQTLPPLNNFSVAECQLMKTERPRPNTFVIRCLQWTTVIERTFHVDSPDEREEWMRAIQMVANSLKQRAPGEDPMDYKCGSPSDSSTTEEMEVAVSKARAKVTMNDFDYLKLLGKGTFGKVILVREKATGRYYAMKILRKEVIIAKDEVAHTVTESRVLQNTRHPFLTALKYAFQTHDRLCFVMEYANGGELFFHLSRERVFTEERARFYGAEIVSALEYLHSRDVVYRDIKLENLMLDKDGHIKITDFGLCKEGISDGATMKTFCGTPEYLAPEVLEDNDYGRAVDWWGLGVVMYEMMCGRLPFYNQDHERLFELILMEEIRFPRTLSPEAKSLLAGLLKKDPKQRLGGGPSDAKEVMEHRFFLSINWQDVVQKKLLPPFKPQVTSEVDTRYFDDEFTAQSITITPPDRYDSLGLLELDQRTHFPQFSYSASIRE

With `COc1ccc(C[C@H]2C(=O)N[C@@H](C)C(=O)N(C)[C@H]3Cc4ccc(cc4)Oc4cc(ccc4O[C@@H]4O[C@H](CO)[C@@H](O)[C@H](O)[C@H]4O)C[C@@H](C(=O)N[C@H](C)C(=O)N[C@@H](C)C(=O)N2C)N(C)C3=O)cc1` [DBG, deoxybouvardin glucoside] the “level of cyclin D1” value ([1]; DBG 3, 6, 12 nM, 48 h) was “significantly decreased”, the cyclinD1 protein/actin ([1]; HCC827, DBG 3 nM, DBG 0 nM 0.51) was 0.23 and the cyclinD1 protein ratio ([1]; HCC827, DBG 3 nM) was 0.46. For the same compound, the cyclinD1 protein/actin ([1]; HCC827, DBG 6 nM, DBG 0 nM 0.51) was 0.14, the cyclinD1 protein ratio ([1]; HCC827, DBG 6 nM) was 0.27 and the cyclinD1 protein/actin ([1]; HCC827, DBG 12 nM, DBG 0 nM 0.51) was 0.09. For the same compound, the cyclinD1 protein ratio ([1]; HCC827, DBG 12 nM) was 0.17, the cyclinD1 protein/actin ([1]; HCC827GR, DBG 3 nM, DBG 0 nM 0.73) was 0.37 and the cyclinD1 protein ratio ([1]; HCC827GR, DBG 3 nM) was 0.51. It also gave a cyclinD1 protein/actin ([1]; HCC827GR, DBG 6 nM, DBG 0 nM 0.73) of 0.33, a cyclinD1 protein ratio ([1]; HCC827GR, DBG 6 nM) of 0.45 and a cyclinD1 protein/actin ([1]; HCC827GR, DBG 12 nM, DBG 0 nM 0.73) of 0.41. For the same compound, the cyclinD1 protein ratio ([1]; HCC827GR, DBG 12 nM) was 0.57, the ROS level ([2]; DBG 3 nM) was 18.40% and the ROS level ([2]; DBG 6 nM) was 47.32%. For the same compound, the ROS level ([2]; DBG 12 nM) was 70.22%, the “level of CDKs (CDK2)” value ([3]; DBG 3, 6, 12 nM, 48 h) was “significantly decreased” and the CDK2 protein/actin ([3]; HCC827, DBG 3 nM, DBG 0 nM 0.56) was 0.43. The CDK2 protein ratio ([3]; HCC827, DBG 3 nM) was 0.77, the CDK2 protein/actin ([3]; HCC827, DBG 6 nM, DBG 0 nM 0.56) was 0.20 and the CDK2 protein ratio ([3]; HCC827, DBG 6 nM) was 0.36. It also gave a CDK2 protein/actin ([3]; HCC827, DBG 12 nM, DBG 0 nM 0.56) of 0.17, a CDK2 protein ratio ([3]; HCC827, DBG 12 nM) of 0.30 and a CDK2 protein/actin ([3]; HCC827GR, DBG 3 nM, DBG 0 nM 0.58) of 0.44. The CDK2 protein ratio ([3]; HCC827GR, DBG 3 nM) was 0.76, the CDK2 protein/actin ([3]; HCC827GR, DBG 6 nM, DBG 0 nM 0.58) was 0.36 and the CDK2 protein ratio ([3]; HCC827GR, DBG 6 nM) was 0.62. The CDK2 protein/actin ([3]; HCC827GR, DBG 12 nM, DBG 0 nM 0.58) was 0.25, the CDK2 protein ratio ([3]; HCC827GR, DBG 12 nM) was 0.44 and the “cells with activated caspases” value ([4]; DBG 3 nM) was 23.91%. For the same compound, the “cells with activated caspases” value ([4]; DBG 6 nM) was 31.13%, the “cells with activated caspases” value ([4]; DBG 12 nM) was 33.34% and the “Caspase+ cells” value ([4]; DBG 3 nM, mean of samples 1-3) was 8.71. The “Caspase+/dead cells” value ([4]; DBG 3 nM, mean of samples 1-3) was 15.20, the “Live cells (multi-caspase assay)” value ([4]; DBG 3 nM, mean of samples 1-3) was 74.50 and the “Total Caspase+ cells” value ([4]; DBG 3 nM, mean of samples 1-3) was 23.91. The “dead cells (multi-caspase assay)” value ([4]; DBG 3 nM, mean of samples 1-3) was 1.60, the “Caspase+ cells” value ([4]; DBG 3 nM, sample 1) was 8.78 and the “Caspase+/dead cells” value ([4]; DBG 3 nM, sample 1) was 15.95. The “Live cells (multi-caspase assay)” value ([4]; DBG 3 nM, sample 1) was 73.93, the “Total Caspase+ cells” value ([4]; DBG 3 nM, sample 1) was 24.73 and the “dead cells (multi-caspase assay)” value ([4]; DBG 3 nM, sample 1) was 1.34. For the same compound, the “Caspase+ cells” value ([4]; DBG 3 nM, sample 2) was 8.19, the “Caspase+/dead cells” value ([4]; DBG 3 nM, sample 2) was 14.57 and the “Live cells (multi-caspase assay)” value ([4]; DBG 3 nM, sample 2) was 75.49. The “Total Caspase+ cells” value ([4]; DBG 3 nM, sample 2) was 22.76, the “dead cells (multi-caspase assay)” value ([4]; DBG 3 nM, sample 2) was 1.75 and the “Caspase+ cells” value ([4]; DBG 3 nM, sample 3) was 9.16. The “Caspase+/dead cells” value ([4]; DBG 3 nM, sample 3) was 15.07, the “Live cells (multi-caspase assay)” value ([4]; DBG 3 nM, sample 3) was 74.07 and the “Total Caspase+ cells” value ([4]; DBG 3 nM, sample 3) was 24.23. For the same compound, the “dead cells (multi-caspase assay)” value ([4]; DBG 3 nM, sample 3) was 1.70, the “Caspase+ cells” value ([4]; DBG 6 nM, mean of samples 1-3) was 7.98 and the “Caspase+/dead cells” value ([4]; DBG 6 nM, mean of samples 1-3) was 23.15. The “Live cells (multi-caspase assay)” value ([4]; DBG 6 nM, mean of samples 1-3) was 67.79, the “Total Caspase+ cells” value ([4]; DBG 6 nM, mean of samples 1-3) was 31.13 and the “dead cells (multi-caspase assay)” value ([4]; DBG 6 nM, mean of samples 1-3) was 1.08. For the same compound, the “Caspase+ cells” value ([4]; DBG 6 nM, sample 1) was 7.79, the “Caspase+/dead cells” value ([4]; DBG 6 nM, sample 1) was 23.36 and the “Live cells (multi-caspase assay)” value ([4]; DBG 6 nM, sample 1) was 67.58. The “Total Caspase+ cells” value ([4]; DBG 6 nM, sample 1) was 31.15, the “dead cells (multi-caspase assay)” value ([4]; DBG 6 nM, sample 1) was 1.27 and the “Caspase+ cells” value ([4]; DBG 6 nM, sample 2) was 7.88. The “Caspase+/dead cells” value ([4]; DBG 6 nM, sample 2) was 23.02, the “Live cells (multi-caspase assay)” value ([4]; DBG 6 nM, sample 2) was 67.97 and the “Total Caspase+ cells” value ([4]; DBG 6 nM, sample 2) was 30.90. For the same compound, the “dead cells (multi-caspase assay)” value ([4]; DBG 6 nM, sample 2) was 1.13, the “Caspase+ cells” value ([4]; DBG 6 nM, sample 3) was 8.26 and the “Caspase+/dead cells” value ([4]; DBG 6 nM, sample 3) was 23.08. The “Live cells (multi-caspase assay)” value ([4]; DBG 6 nM, sample 3) was 67.82, the “Total Caspase+ cells” value ([4]; DBG 6 nM, sample 3) was 31.34 and the “dead cells (multi-caspase assay)” value ([4]; DBG 6 nM, sample 3) was 0.83. For the same compound, the “Caspase+ cells” value ([4]; DBG 12 nM, mean of samples 1-3) was 9.57, the “Caspase+/dead cells” value ([4]; DBG 12 nM, mean of samples 1-3) was 23.77 and the “Live cells (multi-caspase assay)” value ([4]; DBG 12 nM, mean of samples 1-3) was 66.05. For the same compound, the “Total Caspase+ cells” value ([4]; DBG 12 nM, mean of samples 1-3) was 33.34, the “dead cells (multi-caspase assay)” value ([4]; DBG 12 nM, mean of samples 1-3) was 0.61 and the “Caspase+ cells” value ([4]; DBG 12 nM, sample 1) was 11.11. For the same compound, the “Caspase+/dead cells” value ([4]; DBG 12 nM, sample 1) was 21.58, the “Live cells (multi-caspase assay)” value ([4]; DBG 12 nM, sample 1) was 67.07 and the “Total Caspase+ cells” value ([4]; DBG 12 nM, sample 1) was 32.69. The “dead cells (multi-caspase assay)” value ([4]; DBG 12 nM, sample 1) was 0.24, the “Caspase+ cells” value ([4]; DBG 12 nM, sample 2) was 10.36 and the “Caspase+/dead cells” value ([4]; DBG 12 nM, sample 2) was 24.35. For the same compound, the “Live cells (multi-caspase assay)” value ([4]; DBG 12 nM, sample 2) was 65.05, the “Total Caspase+ cells” value ([4]; DBG 12 nM, sample 2) was 34.70 and the “dead cells (multi-caspase assay)” value ([4]; DBG 12 nM, sample 2) was 0.24. The “Caspase+ cells” value ([4]; DBG 12 nM, sample 3) was 7.24, the “Caspase+/dead cells” value ([4]; DBG 12 nM, sample 3) was 25.38 and the “Live cells (multi-caspase assay)” value ([4]; DBG 12 nM, sample 3) was 66.02. For the same compound, the “Total Caspase+ cells” value ([4]; DBG 12 nM, sample 3) was 32.62, the “dead cells (multi-caspase assay)” value ([4]; DBG 12 nM, sample 3) was 1.36 and the IC50 ([5]; ADP-Glo, AKT2 5 ng, RT, 60 min, luminescence, n=3) was 11.2 nM. The “kinase activity, in words” value ([5]; DBG 3, 6, 12 nM) was “significantly inhibited”.
